# From patent US20070014757A1, “Compositions and complexes containing a macromolecular compound as potential anti-inflammatory agents” (COUNCIL OF SCIENTIFIC AND INDUSTRIAL RESEARCH, priority 2002, published 2007)
# Like-named read-outs stand apart in the source and are kept apart here.
# Key:
# [1] = system: cotton pellet granuloma in rats; assay: Cotton pellet test in rats (sub-acute model); assay type: in vivo; conditions: granuloma dry weight vs control, dosed once a day, day 1 to 7; I 1.4 mg/kg, D 12 mg/kg, DI 1.4 mg/kg I + 12 mg/kg D
# Method: Cotton pellet test in rats: Four autoclaved pellets of cotton weighing 10 mg±0.5 mg were implanted on the previously shaved groin and axilla (two cotton pellet in each) region of rats aseptically. The test formulations (D,I and DI) were fed once a day from 1 to 7 of the experiment. On the day 8 th, the rats were etherized by an overdose of ether and the pellets surrounded by granuloma tissue wre dissected out carefully and dried in a hot oven at 60° C. till a constant weight was obtained. Ulcers were not found in any of the case. After dissection various organs were removed, washed, dried and weighed and histopathology was carried out. No abnormalities were found after conducting the histopathology of liver, lung, kidney and spleen.
# The subcutaneous implantation of cotton pellets provides inflammatory exudates that are easily processed. Implantation of cotton pellet triggers the series of cascade inflammatory reaction, leads to the migration of mediators of the inflammation in the zone of implantation.
# [2] = system: Adjuvant-induced arthritis in rats; assay: Adjuvant-induced arthritis in rats (chronic model); assay type: in vivo; conditions: foot swelling, daily dosing I 1 mg/kg, D 9 mg/kg, DI 1 mg/kg I + 9 mg/kg D
# Description: Rats were sacrificed. After dissection various organs were removed, washed, dried and weighed. Ulcers were not observed in any of the cases.
# The body weight and feed intake of rats were monitored regularly. Weight gain has also been used as a parameter for assessing drug effectiveness.
# [3] = Phase solubility study of indomethacin in aqueous dendrimer solutions; assay type: physicochemical; conditions: indomethacin with PAMAM (fourth generation), 25° C.
# Method: Solubility studies were carried out as described by Higuchi and Connors with minor modifications.
# Solubility phase diagram depicts the AN type of curve (FIG. 2), which represent a decreasing dependence on the ligand added at higher concentration. This type is comparatively least frequently encountered system, and its occurrence may be explained on the basis of self-association of the ligand at high concentration, which is in contrast to the curve reported by Emanuele et al, for dendrimer using ibuprofen. The negative slope in the curve may be due to the aggregation of dendrimer with the increasing concentration.
# [4] = Comparative behavior of dendrimer and indomethacin at different pH (solubility); assay type: physicochemical
# Method: To study the comparative behavior of dendrimer and indometacin at different pH two possibilities were tried. […] The pH of the aqueous solutions of dendrimer was adjusted using 0.1 N HCl and 1M NaOH. […] To the aqueous solutions of various pH (pH-2, 4 7, 8 and 10), dendrimer was added at different percentage. (0.075, 0.15, 0.2). pH was measured in each case. […] The amines of dendrimer will show maximum ionization at acidic pH and minimum ionization at basic pH. […] (initial pH).
# [5] = Hematological parameters in arthritic rats (blood cell counter)
# Method: (§1) Hematological parameters were determined by blood cell counter (Medonic CA 620).
# [6] = rat, in vivo
# Method: as §1
compound,measurement,setting,value
"COc1ccc2c(c1)c(CC(=O)O)c(C)n2C(=O)c1ccc(Cl)cc1 [I, Indomethacin]",Mean Percentage Inhibition ± SE,[1],22 ± 1.2%
same,Mean Percentage Inhibition ± SE,[2]; +1 day,17 ± 0.9%
same,Mean Percentage Inhibition ± SE,[2]; +3 day,18 ± 0.7%
same,Mean Percentage Inhibition ± SE,[2]; +5 day,9 ± 0.6%
same,Mean Percentage Inhibition ± SE,[2]; +7 day,9 ± 0.8%
same,Mean Percentage Inhibition ± SE,[2]; +10 day,8 ± 0.6%
same,Mean Percentage Inhibition ± SE,[2]; +12 day,10 ± 0.9%
same,Mean Percentage Inhibition ± SE,[2]; +14 day,11 ± 0.9%
same,type of phase solubility profile,[3],AN type of solubility profile
same,solubility of indomethacin on addition of dendrimer (in words),[4]; case-A: filtered saturated solution of indomethacin,found to be decrease
same,solubility of indomethacin on addition of dendrimer (in words),"[4]; case-B: suspension with un-dissolved drug, dendrimer 0.075%, 0.15%, 0.2%",further increased
same,Haematocrit,[5],30.3%
same,Hemoglobin concentration,[5],11.6 gm/dl
same,Large platelets,[5],8.05%
same,Mean Platelet Cell Volume,[5],6.55 um^3
same,Mean cell hemoglobin,[5],19.9 pg
same,Mean cell hemoglobin concentration,[5],38.2 g/dL
same,Mean cell volume for red blood cell,[5],52 um^3
same,Packed platelet volume,[5],0.51%
same,Platelet distribution width,[5],8.63 um^3
same,Platelets,[5],778 10^3\mm^3
same,Red blood cell,[5],5.87 10^6/mm^3
same,Red cell distribution width,[5],18.9%
same,Red cell distribution width absolute,[5],44.1 um^3
same,White blood cells,[5],8.85 10^3/mm^3
NH2 terminated PAMAM dendrimer (EDA core) generation 4,Haematocrit,[6],37.3%
same,Hemoglobin concentration,[6],11.3 gm/dl
same,Large platelets,[6],7.75%
same,Mean Platelet Cell Volume,[6],6.5 um^3
same,Mean cell hemoglobin,[6],18.9 pg
same,Mean cell hemoglobin concentration,[6],38 g/dL
same,Mean cell volume for red blood cell,[6],49.7 um^3
same,Packed platelet volume,[6],0.45%
same,Platelet distribution width,[6],8.6 um^3
same,Platelets,[6],700 10^3\mm^3
same,Red blood cell,[6],6 10^6/mm^3
same,Red cell distribution width,[6],14.9%
same,Red cell distribution width absolute,[6],36.3 um^3
same,White blood cells,[6],8.78 10^3/mm^3
